Assay results: US9144538B2, “Cosmetic compositions containing substituted azole and methods for alleviating the signs of photoaged skin” (The Procter & Gamble Company, priority 2013, dated 2015)
pIC50: −log10 of the molar value. Where two headings read alike, the source gives them in different places.

Key:
CYP3A4 = CYP3A4 (Homo sapiens (Human), UniProt P08684); test: In vitro CYP3A4 inhibition assay (P450-GLO Assay kit); settings: for IC50: read-out: IC50 (uM), CYP3A4 inhibition
Text: The metabolism of retinoic acid and vitamin D in the skin is incompletely understood, but there is evidence for the involvement of CYP26A1, CYP3A4 and CYP2C8 in catalyzing the 4-hydroxylation of all-trans RA to 4-hydroxy-RA. It is believed, without being limited by theory, that CYP3A4 may be particularly important for ATRA metabolism in the skin. This is because CYP3A4 is expressed in skin, involved in RA metabolism, a CYP with one of the broadest substrate specificities of all of the known CYPs and available as a human recombinant protein in a commercial kit. Thus, a commercially available CYP3A4 assay was used as a surrogate to predict RAMBA potential in the skin.
The commercially available P450-GLO™ Assay kit (Promega Corporation, Madison Wis.) was used to screen various compounds for potential CYP activity, specifically CYP3A4A inhibition activity. CYP3A4A is thought to be among the primary CYP isoforms responsible for retinoic acid metabolism in the skin.
A commercially available P450-GLO™ Assay kit (Promega Corporation, Madison Wis.) is used to screen various compounds for CYP3A4A inhibition activity. CYP3A4A is thought to be one of the primary CYP isoforms responsible for retinoic acid metabolism in the skin.

[1] = test system: ATRA 4-hydroxylase (CYP) activity of pig liver microsomes; test: In vitro ATRA 4-hydroxylase activity assay to determine CYP inhibition (pig liver microsomes); settings: for CYP inhibitory activity (in words), 4-hydroxylase assay / IC50: pig liver microsomes; for IC50: read-out: IC50 (μM), in vitro 4-hydroxylase inhibition assay, 1 μM ATRA, 90 min at 37° C.; for pIC50: pig, 90 min, pH 7.4
Text: Cytochrome P450 is a large and diverse group of enzymes that catalyze the oxidation of organic substances. […] Applicant evaluated the potential RAMBA activity of several azoles using pig liver microsomes, a rich source of CYP activity, comprising many different CYP 450 isoforms. […] As understanding in this area has progressed, a more specific CYP inhibition assay can be used to provide better predictivity of activity in human skin. Nevertheless, this assay may still be used as a general predictor of overall CYP activity.
All procedures were carried out under minimal light in order to prevent degradation of the retinoid samples.
Microsomal preparation: one lobe of fresh pig liver was obtained at the time of slaughter from a food-processing company and immediately placed in ice cold 15 mM KH2PO4/250 mM sucrose (pH 7.4) and kept on ice during transportation. A 10 g sample of liver was minced and homogenized in 30 mls of homogenization buffer (15 mM KH2PO4/250 mM sucrose) using a Tekmar homoginizer by pulsing 3 times 20 second pulses. […] The remaining pig liver was cut into 10-g pieces and wrapped in aluminum foil and stored at −80° C. The homogenates from the 8 samples were pooled and centrifuged at 13,000×g for 20 minutes at 4° C. to remove crude debris and the supernatant was further centrifuged at 100,000×g for 70 minutes at 4° C. The microsomal pellets were resuspended into 50 mls of 150 mM KH2PO4/1 mM DTT (pH 7.4) and 1 mL aliquots were stored at −80° C.
100-150 μg of pig liver microsomal protein in 150 mM KH2PO4 is incubated at 37° C. in the presence of radiolabeled ATRA and 5 mM NADPH for 90 min. The final ATRA concentration is 1 μM, as a combination of [20-Methyl-^3H]ATRA and unlabeled ATRA. Initially, radiolabeled ATRA may be used to assist in validating the method. Once retention times of retinoid metabolites are identified, unlabeled ATRA is used for screening. Compounds tested as possible competitive substrates are added to the assay 10 min prior to the addition of ATRA. Ethanol, containing 0.1% butylated hydroxytoluene (BHT) as an antioxidant, is used to stop the reactions. For recovery of ATRA the pH of reactions are adjusted to 3.0 before extraction with 0.1N HCl. Retinoids are extracted from the protein aqueous phase with 4 mL hexane, 1 ml 100 μg/ml BHT in water (pH 3). An additional 4 mlL of hexane (pH 3) is used for a second extraction. The organic extractions are pooled, evaporated to dryness using a speed vac, and resuspended in 62.5 μl acetonitrile containing 1 mg/ml BHT. Samples are analyzed by HPLC.
Mobile phases used for gradient elution of retinoids are those of Duell et al., J. Clin. Invest. […] Mobile phase A is acetonitrile:0.02 M ammonium acetate:acetic acid (1:1:0.01) and mobile phase B is acetonitrile:0.2M ammonium acetate:acetic acid (19:1:0.008). At the start of the HPLC run, solvent A is run 100% followed by a linear gradient to solvent B at 3 minutes, a shallow gradient to 81% solvent B at 38 minutes, and 100% solvent B at 40 minutes. […] Effluent from the HPLC column flows directly into a flow-through scintillation spectrometer (β-RAM). Because of the sensitivity limitations of the β-RAM spectrometer, it is not used to quantitate peak areas but rather to confirm ATRA and ATRA 4-hydroxylase activity. Calculated peaks areas (using Millenium software—Waters Corp.) of ATRA and ATRA metabolites are used to quantify relative activity levels.

CYP3A4, sequence (P08684 whole entry): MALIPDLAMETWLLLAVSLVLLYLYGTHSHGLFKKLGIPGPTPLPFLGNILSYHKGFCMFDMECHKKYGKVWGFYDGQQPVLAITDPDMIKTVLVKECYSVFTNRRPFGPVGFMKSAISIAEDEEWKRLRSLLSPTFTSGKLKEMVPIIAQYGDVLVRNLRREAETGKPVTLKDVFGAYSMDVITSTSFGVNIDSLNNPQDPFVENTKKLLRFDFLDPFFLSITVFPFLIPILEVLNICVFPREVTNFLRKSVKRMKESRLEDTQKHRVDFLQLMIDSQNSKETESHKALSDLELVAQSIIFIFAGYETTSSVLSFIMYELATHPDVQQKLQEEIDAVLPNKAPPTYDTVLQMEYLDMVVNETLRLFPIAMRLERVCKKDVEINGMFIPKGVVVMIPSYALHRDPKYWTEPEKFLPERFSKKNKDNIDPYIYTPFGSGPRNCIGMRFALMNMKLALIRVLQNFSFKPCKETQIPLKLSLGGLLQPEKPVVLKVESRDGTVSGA

Molecule	pIC50 (CYP3A4; human)	IC50 (CYP3A4; P450-GLO Assay kit) [µM]	other results
c1ccc(-n2ccnc2)cc1 [1-phenylimidazole]			hit / no hit, inhibition of CYP3A4 (CYP3A4; P450-GLO Assay kit): Hit; inhibitory activity in the CYP3A4 assay (in words) (CYP3A4; P450-GLO Assay kit): showed inhibitory activity; CYP inhibitory activity (in words), 4-hydroxylase assay [1]: in the same range as climbazole; IC50 [1]: 52.5 µM
Clc1ccc(COC(Cn2ccnc2)c2ccc(Cl)cc2Cl)c(Cl)c1 (stereo not drawn) [Miconazole]			hit / no hit, inhibition of CYP3A4 (CYP3A4; human): Hit 5 uM
CC1=N[C@H](C(=O)O)CCN1 [Ectoine]	< 5.00		
CC(C)(C(=O)c1cccnc1)c1cccnc1 [Metyrapone]			hit / no hit, inhibition of CYP3A4 (CYP3A4; human): Hit
Nc1nc[nH]n1 [Amitrol]	< 5.00		
Cc1nccn1Cc1ccccc1 [1-benzyl-2-methylimidazole]			pIC50 [1]: 3.51
C=Cn1ccnc1 [1-Vinylimidazole]		> 10	
Cc1cccc(C)c1N(Cn1cccn1)C(=O)CCl [Metazachlor]		> 10	hit / no hit, inhibition of CYP3A4 (CYP3A4; human): no hit >10 uM (key: hit: strong inhibition (IC50 value<10 μM); no hit: weak/no inhibition (IC50 value >10 μM))
CC(=O)/C=C/C1=C(C)CCCC1(C)C [β-Ionone]	< 5.00		
Clc1ncnc2[nH]cnc12 [6-Chloropurine]	< 5.00		
CCc1cccc(C)c1N(C(=O)CCl)[C@@H](C)COC [Metolachlor]		> 10	hit / no hit, inhibition of CYP3A4 (CYP3A4; P450-GLO Assay kit): no hit (weak/no inhibition (IC50 value >10 μM))
c1ccc(-c2ncc[nH]2)cc1 [2-phenylimidazole, 2-Phenylimidazole]	< 5.00		inhibitory activity in the CYP3A4 assay (in words) (CYP3A4): did not; hit / no hit, inhibition of CYP3A4 (CYP3A4; P450-GLO Assay kit): no hit (weak/no inhibition (IC50 value >10 μM)); CYP inhibitory activity (in words), 4-hydroxylase assay [1]: lacked any significant inhibitory activity; IC50 [1]: > 500 µM
Clc1ccccc1-c1nc2ccccc2[nH]1 [2-(2-Chlorophenyl) benzimidazole]		> 10	
CC(=O)c1ccc(-n2ccnc2)cc1 [4′-(Imidazol-1yl) acetophenome]			hit / no hit, inhibition of CYP3A4 (CYP3A4; human): Hit
CCCCc1nc(C=O)c(Cl)[nH]1 [2-Butyl-4-chloro-5-formylimidazole]	< 5.00		
Diltazem		> 10	hit / no hit, inhibition of CYP3A4 (CYP3A4; P450-GLO Assay kit): no hit (weak/no inhibition (IC50 value >10 μM))
c1coc(-c2nc3ccccc3[nH]2)c1 [Fuberidazole]		> 10	hit / no hit, inhibition of CYP3A4 (CYP3A4; human): no hit >10 uM (key: hit: strong inhibition (IC50 value<10 μM); no hit: weak/no inhibition (IC50 value >10 μM))

Molecule	pIC50 (CYP3A4; human)	IC50 (CYP3A4; P450-GLO Assay kit) [µM]	other results
c1ccc2[nH]cnc2c1 [Benzimidazole]		> 10	
O=C(n1ccnc1)n1ccnc1 [1′-1-Carbonylimidazole]		> 10	
N=C(N)c1ccc(OCCCCCCOc2ccc(C(=N)N)cc2)cc1 [Hexamidine diisethionate]		> 10	
CCc1ncc[nH]1 [2-Ethylimidazole]	< 5.00		
c1ccc(Cn2ccnc2)cc1 [1-benzylimidazole]			IC50 [1]: 77.5 µM
CC(=O)n1ccnc1 [1-Acetylimidazole]		> 10	
N[C@@H](Cc1c[nH]cn1)C(=O)O [Histidine]	< 5.00		
Cc1ccc2cc3c(ccc4ccccc43)c3c2c1CC3 [Methylcholanthrene]		> 10	hit / no hit, inhibition of CYP3A4 (CYP3A4; P450-GLO Assay kit): Near Hit
O=C(/C=C/C=C/c1ccc2c(c1)OCO2)N1CCCCC1 [Piperine]	~5.00		hit / no hit, inhibition of CYP3A4 (CYP3A4; human): Hit
c1ccc(-c2nc[nH]c2-c2ccccc2)cc1 [4,5-diphenylimidazole]			pIC50 [1]: 4.00
CC(NC(=O)[C@@H](N)CCC(=O)O)c1ncc[nH]1 (stereo partly drawn) [Glutamylamidoethyl]	< 5.00		
Cc1ncc[nH]1 [2-Methylimidazole]		> 10	
CCCCNC(=O)n1c(NC(=O)OC)nc2ccccc21 [Benomyl]		> 10	hit / no hit, inhibition of CYP3A4 (CYP3A4; P450-GLO Assay kit): no hit (weak/no inhibition (IC50 value >10 μM))
Cn1ccnc1 [1-Methylimidazole]	< 5.00		
NCCCn1ccnc1 [N-(3-Aminopropyl) imidazole]	< 5.00		
CCc1nc(C)c[nH]1 [2-Ethyl-4-methylimidazole]		> 10	
c1ccc(-c2n[nH]cc2-c2ccnc3ccccc23)nc1 [LY-364947]	< 5.00		
